# In patent publication US9796711B2, “Substituted pyrazolo[3,4-b]pyridin-6-carboxylic acids and method of use” (AbbVie S.àr.l., priority 2015, dated 2017):
# Key:
# [1] = target: T1, ΔF508-CFTR (Homo sapiens, UniProt P13569, DEL508-508); assay: CFTR cell surface levels using HRP-tagged ΔF508-CFTR expressing CFBE cells, intrinsic corrector capacity; format: cell-based; details: for EC50: read-out: EC50
# T1 construct: host or cells: CFBE41o-, doxycycline-inducible
# Outline: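 Here the cells express ΔF508-CFTR with horseradish peroxidase inserted in extracellular loop 4, so only rescued channel at the surface gives luminescent signal. Compounds act on their own, 20 h at the reduced temperature of 33 °C; values are percent activity relative to DMSO and a 3 μM corrector.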
# [2] = target: T1, ΔF508-CFTR; assay: CFTR cell surface levels using HRP-tagged ΔF508-CFTR expressing CFBE cells, in the presence of a co-corrector; format: cell-based; details: HRP-tagged ΔF508-CFTR expressing CFBE cells, in the presence of 3 μM co-corrector; for EC50: read-out: EC50
# Outline: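 Cells were seeded with 0.5 μg/mL doxycycline and held 68 h at 37 °C. Test compounds plus 3 μM co-corrector (final 0.1% DMSO) were then added for 20 h at 33 °C. Washed cells received HRP substrate, and luminescence was normalized between DMSO and 3 μM co-corrector controls.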
# [3] = HRP-tagged ΔF508-CFTR expressing CFBE cells, intrinsic corrector capacity (no co-corrector), 33° C., 20 hours
# [4] = HRP-tagged ΔF508-CFTR CFBE cells, compound alone (intrinsic corrector capacity), 20 hours at 33° C.
# T1 sequence (P13569 with tags, fused parts or gaps DEL508-508): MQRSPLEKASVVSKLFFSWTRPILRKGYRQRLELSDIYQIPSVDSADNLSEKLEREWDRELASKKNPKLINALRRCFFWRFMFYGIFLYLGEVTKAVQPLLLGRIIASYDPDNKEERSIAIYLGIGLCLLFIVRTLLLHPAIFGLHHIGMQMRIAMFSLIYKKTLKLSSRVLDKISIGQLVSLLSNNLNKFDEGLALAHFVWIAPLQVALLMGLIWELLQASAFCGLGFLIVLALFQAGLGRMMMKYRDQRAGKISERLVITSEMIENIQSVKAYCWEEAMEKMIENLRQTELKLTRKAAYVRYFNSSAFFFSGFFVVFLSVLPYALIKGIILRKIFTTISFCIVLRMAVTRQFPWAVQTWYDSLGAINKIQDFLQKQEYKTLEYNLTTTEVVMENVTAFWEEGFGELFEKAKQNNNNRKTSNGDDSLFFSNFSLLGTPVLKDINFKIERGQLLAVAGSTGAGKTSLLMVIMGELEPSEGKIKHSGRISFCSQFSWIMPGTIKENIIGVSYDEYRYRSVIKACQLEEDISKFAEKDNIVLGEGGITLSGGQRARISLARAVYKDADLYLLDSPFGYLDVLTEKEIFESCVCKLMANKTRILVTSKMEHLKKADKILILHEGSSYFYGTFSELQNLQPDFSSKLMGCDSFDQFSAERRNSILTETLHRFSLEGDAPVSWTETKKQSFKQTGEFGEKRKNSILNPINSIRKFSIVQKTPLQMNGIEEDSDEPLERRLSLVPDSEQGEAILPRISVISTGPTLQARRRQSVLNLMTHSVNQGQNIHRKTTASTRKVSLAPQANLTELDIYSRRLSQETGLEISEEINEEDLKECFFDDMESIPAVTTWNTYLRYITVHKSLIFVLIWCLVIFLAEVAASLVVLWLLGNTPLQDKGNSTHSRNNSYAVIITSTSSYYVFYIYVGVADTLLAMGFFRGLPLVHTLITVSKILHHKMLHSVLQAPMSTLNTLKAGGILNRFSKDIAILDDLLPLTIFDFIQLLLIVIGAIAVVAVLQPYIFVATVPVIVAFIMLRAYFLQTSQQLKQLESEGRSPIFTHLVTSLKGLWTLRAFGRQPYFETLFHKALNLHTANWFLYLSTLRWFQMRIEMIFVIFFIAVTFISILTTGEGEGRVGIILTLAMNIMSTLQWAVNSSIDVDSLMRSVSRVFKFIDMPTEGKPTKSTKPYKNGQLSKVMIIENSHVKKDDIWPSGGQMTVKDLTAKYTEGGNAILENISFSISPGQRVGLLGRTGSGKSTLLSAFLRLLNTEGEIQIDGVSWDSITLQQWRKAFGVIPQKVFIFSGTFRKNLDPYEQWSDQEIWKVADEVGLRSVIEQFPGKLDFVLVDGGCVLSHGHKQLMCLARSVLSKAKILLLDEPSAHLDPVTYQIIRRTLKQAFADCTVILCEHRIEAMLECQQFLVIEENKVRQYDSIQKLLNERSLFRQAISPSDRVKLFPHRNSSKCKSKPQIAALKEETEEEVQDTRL
structure (smiles),measurement,setting,value
"CC(C)c1nn(-c2ccc(F)cc2)c2nc(C(=O)O)cc(N3CCC(C(C)N4CCCC4)CC3)c12 (stereo not drawn) [compound 789, 1-(4-fluorophenyl)-3-(propan-2-yl)-4-{4-[1-(pyrrolidin-1-yl)ethyl]piperidin-1-yl}-1H-pyrazolo[3,4-b]pyridine-6-carboxylic acid]",% Activation,[1]; [3],257.05%
same,EC50,[1]; [3],477 nM
same,% Activation,[2],460.95%
same,EC50,[2],918 nM
"CC(C)c1nn(-c2ccc(F)cc2)c2nc(C(=O)O)cc(N3CCC(CN4CCCCC4)CC3)c12 [compound 790, 1-(4-fluorophenyl)-4-{4-[(piperidin-1-yl)methyl]piperidin-1-yl}-3-(propan-2-yl)-1H-pyrazolo[3,4-b]pyridine-6-carboxylic acid]",% Activation,[1]; [3],193.7%
same,EC50,[1]; [3],294 nM
same,% Activation,[2],419.1%
same,EC50,[2],181 nM
"CO[C@@H]1CCN(CC2CCN(c3cc(C(=O)O)nc4c3c(C3CCC3)nn4-c3ccccc3)CC2)C1 [compound 803, 3-cyclobutyl-4-(4-{[(3R)-3-methoxypyrrolidin-1-yl]methyl}piperidin-1-yl)-1-phenyl-1H-pyrazolo[3,4-b]pyridine-6-carboxylic acid]",% Activation,[1]; [3],229.35%
same,EC50,[1]; [3],1020 nM
same,% Activation,[2],436%
same,EC50,[2],672 nM
"COC[C@H]1CCN(CC2CCN(c3cc(C(=O)O)nc4c3c(C3CCC3)nn4-c3ccccc3)CC2)C1 [compound 804, 3-cyclobutyl-4-(4-{[(3S)-3-(methoxymethyl)pyrrolidin-1-yl]methyl}piperidin-1-yl)-1-phenyl-1H-pyrazolo[3,4-b]pyridine-6-carboxylic acid]",% Activation,[1]; [3],191.15%
same,EC50,[1]; [3],489 nM
same,% Activation,[2],365%
same,EC50,[2],231 nM
"O=C(O)c1cc(N2CCC(CCN3CCOCC3)CC2)c2c(C3CCC3)nn(-c3ccc(F)cc3)c2n1 [compound 810, 3-cyclobutyl-1-(4-fluorophenyl)-4-{4-[2-(morpholin-4-yl)ethyl]piperidin-1-yl}-1H-pyrazolo[3,4-b]pyridine-6-carboxylic acid]",% Activation,[1]; [3],277.6%
same,EC50,[1]; [3],204 nM
same,% Activation,[2],468.7%
same,EC50,[2],88.4 nM
"O=C(O)c1cc(N2CCC(N3CCC(F)CC3)CC2)c2c(C3CCC3)nn(-c3ccc(F)cc3)c2n1 [compound 849, 3-cyclobutyl-4-(4-fluoro[1,4′-bipiperidin]-1′-yl)-1-(4-fluorophenyl)-1H-pyrazolo[3,4-b]pyridine-6-carboxylic acid]",% Activation,[1]; [3],249.1%
same,EC50,[1]; [3],660 nM
same,% Activation,[2],458.6%
same,EC50,[2],231 nM
"COCCN1CCN(c2ccc(-c3cc(C(=O)O)nc4c3c(C3CCC3)nn4C3CCCCC3)cn2)CC1 [compound 878, 3-cyclobutyl-1-cyclohexyl-4-{6-[4-(2-methoxyethyl)piperazin-1-yl]pyridin-3-yl}-1H-pyrazolo[3,4-b]pyridine-6-carboxylic acid]",% Activation,[1]; [3],181.05%
same,EC50,[1]; [3],221 nM
same,% Activation,[2],391.3%
same,EC50,[2],99.6 nM
"O=C(O)c1cc(N2CCC(N3CCN(C4CC4)CC3)CC2)c2c(C3CCC3)nn(-c3ccc(F)cc3)c2n1 [compound 886, 3-cyclobutyl-4-[4-(4-cyclopropylpiperazin-1-yl)piperidin-1-yl]-1-(4-fluorophenyl)-1H-pyrazolo[3,4-b]pyridine-6-carboxylic acid]",% Activation,[1]; [3],236.05%
same,EC50,[1]; [3],467 nM
same,% Activation,[2],551.77%
same,EC50,[2],511 nM
"O=C(O)c1cc(N2CCC3(CC2)CCN(C2CC2)CC3)c2c(C3CCC3)nn(-c3ccc(F)cc3)c2n1 [compound 887, 3-cyclobutyl-4-(9-cyclopropyl-3,9-diazaspiro[5.5]undecan-3-yl)-1-(4-fluorophenyl)-1H-pyrazolo[3,4-b]pyridine-6-carboxylic acid]",% Activation,[1]; [3],191.35%
same,EC50,[1]; [3],361 nM
same,% Activation,[2],375.13%
same,EC50,[2],204 nM
"CC(C)N1CCC2(CCN(c3cc(C(=O)O)nc4c3c(C3CCC3)nn4-c3ccc(F)cc3)CC2)CC1 [compound 890, 3-cyclobutyl-1-(4-fluorophenyl)-4-[9-(propan-2-yl)-3,9-diazaspiro[5.5]undecan-3-yl]-1H-pyrazolo[3,4-b]pyridine-6-carboxylic acid]",% Activation,[1]; [3],179%
same,EC50,[1]; [3],742 nM
same,% Activation,[2],406.67%
same,EC50,[2],225 nM
"COC1CCN(C2CCN(c3cc(C(=O)O)nc4c3c(C3CCC3)nn4-c3ccc(F)cc3)CC2)CC1 [compound 892, 3-cyclobutyl-1-(4-fluorophenyl)-4-(4-methoxy[1,4′-bipiperidin]-1′-yl)-1H-pyrazolo[3,4-b]pyridine-6-carboxylic acid]",% Activation,[1]; [3],196.44%
same,EC50,[1]; [3],603 nM
same,% Activation,[2],428.72%
same,EC50,[2],602 nM
"O=C(O)c1cc(N2CCC3(CC2)CCN(C2CCC2)CC3)c2c(C3CCC3)nn(-c3ccc(F)cc3)c2n1 [compound 894, 3-cyclobutyl-4-(9-cyclobutyl-3,9-diazaspiro[5.5]undecan-3-yl)-1-(4-fluorophenyl)-1H-pyrazolo[3,4-b]pyridine-6-carboxylic acid]",% Activation,[1]; [3],164%
same,EC50,[1]; [3],304 nM
same,% Activation,[2],371.3%
same,EC50,[2],218 nM
"COCCN1CCC2(CC1)CCN(c1cc(C(=O)O)nc3c1c(C1CCC1)nn3-c1ccc(F)cc1)CC2 [compound 897, 3-cyclobutyl-1-(4-fluorophenyl)-4-[9-(2-methoxyethyl)-3,9-diazaspiro[5.5]undecan-3-yl]-1H-pyrazolo[3,4-b]pyridine-6-carboxylic acid]",% Activation,[1]; [3],151.25%
same,EC50,[1]; [3],348 nM
same,% Activation,[2],354.93%
same,EC50,[2],186 nM
"O=C(O)c1cc(N2CCC(N3CCC(O)CC3)CC2)c2c(C3CCC3)nn(-c3ccc(F)cc3)c2n1 [compound 898, 3-cyclobutyl-1-(4-fluorophenyl)-4-(4-hydroxy[1,4′-bipiperidin]-1′-yl)-1H-pyrazolo[3,4-b]pyridine-6-carboxylic acid]",% Activation,[1]; [3],231.6%
same,EC50,[1]; [3],3240 nM
same,% Activation,[2],393.6%
same,EC50,[2],3330 nM
"O=C(O)c1cc(N2CCC(N3CCOCC3)CC2)c2c(C3CCC3)nn(-c3cccc(OC(F)F)c3)c2n1 [compound 910, 3-cyclobutyl-1-[3-(difluoromethoxy)phenyl]-4-[4-(morpholin-4-yl)piperidin-1-yl]-1H-pyrazolo[3,4-b]pyridine-6-carboxylic acid]",% Activation,[1]; [3],286.2%
same,EC50,[1]; [3],187 nM
same,% Activation,[2],499.9%
same,EC50,[2],79.1 nM
CC(F)(F)c1cccc(-n2nc(C3CCC3)c3c(N4CCC(N5CCOCC5)CC4)cc(C(=O)O)nc32)c1 [compound 915],% Activation,[1]; [4],386.2%
same,EC50,[1]; [4],394 nM
same,% Activation,[2],587.95%
same,EC50,[2],50.2 nM
"CC(C)Oc1cccc(-n2nc(C3CCC3)c3c(N4CCC(N5CCOCC5)CC4)cc(C(=O)O)nc32)n1 [compound 924, 3-cyclobutyl-4-[4-(morpholin-4-yl)piperidin-1-yl]-1-{6-[(propan-2-yl)oxy]pyridin-2-yl}-1H-pyrazolo[3,4-b]pyridine-6-carboxylic acid]",% Activation,[1]; [4],374.45%
same,EC50,[1]; [4],420 nM
same,% Activation,[2],609.82%
same,EC50,[2],136 nM
"CC(C)Oc1nn(C2CCCCC2)c2nc(C(=O)O)cc(-c3ccc(CN4CC(N(C)C)C4)cc3)c12 [compound 927, 1-cyclohexyl-4-(4-{[3-(dimethylamino)azetidin-1-yl]methyl}phenyl)-3-[(propan-2-yl)oxy]-1H-pyrazolo[3,4-b]pyridine-6-carboxylic acid]",% Activation,[1]; [4],150.78%
same,EC50,[1]; [4],1250 nM
same,% Activation,[2],362.92%
same,EC50,[2],1100 nM
